Results published in patent US8758816B2, “Compositions comprising azelastine and methods of use thereof” (priority 2004, dated 2014).
Counter-ions that a name gives are not always drawn.

System: patients with seasonal allergic rhinitis (SAR)
Assay: MP 428 two-week randomized double-blind study: Total Nasal Symptom Score (TNSS), change from baseline
Format: in vivo, human
Parameters: key to Change from Baseline in AM TNSS, Mean / Change from Baseline in AM TNSS, LS Mean / Change from Baseline in AM TNSS, Median: TNSS sum of 4 symptoms each 0-3 (0=none, 3=severe); change from baseline
Procedure: A two-week, randomized, double-blind study, which evaluated the effects of the co-administration of ASTELIN® (azelastine hydrochloride (HCl)) and FLONASE® (fluticasone propionate) compared to either product alone in patients with seasonal allergic rhinitis (SAR) was conducted during the 2006 Texas mountain cedar season. After a 5-day placebo lead-in period, 151 patients with moderate-to-severe allergic rhinitis symptoms were randomized to either: (1) (49 total patients) ASTELIN® (azelastine hydrochloride (HCl)) plus placebo saline nasal spray 2 sprays per nostril, 15 minutes apart, twice daily (AM & PM); (2) (50 total patients) FLONASE® (fluticasone propionate) plus placebo saline nasal spray, 2 sprays per nostril, 15 minutes apart, once daily (AM) and two sessions of placebo saline nasal spray, 2 sprays per nostril, 15 minutes apart (PM); or (3) (52 total patients) the co-administration of ASTELIN® (azelastine hydrochloride (HCl)) 2 sprays per nostril plus FLONASE® (fluticasone propionate) 2 sprays per nostril (AM), 15 minutes apart, and ASTELIN® (azelastine hydrochloride (HCl)) 2 sprays per nostril plus placebo saline nasal spray, 15 minutes apart, (PM) for a 2-week double-blind treatment period.
The primary efficacy variable was the change from baseline in the Total Nasal Symptom Score (TNSS), which comprised sneezing, itchy nose, runny nose, and nasal congestion (individual symptoms scores were assigned a value between 0 and 3, where 0=no symptoms and 3=severe symptoms). This study was not statistically designed to assess the differences between ASTELIN® and FLONASE®.

[1] = Day 2, Intent-to-Treat Population
[2] = Day 3, Intent-to-Treat Population
[3] = Day 4, Intent-to-Treat Population
[4] = Day 5, Intent-to-Treat Population

CN1CCCC(n2nc(Cc3ccc(Cl)cc3)c3ccccc3c2=O)CC1 (racemic) [Azelastine, (±)-1-(2H)-phthalazinone, 4-[(4-chlorophenyl)methyl]-2-(hexahydro-1-methyl-1H-azepin-4-yl)-, mono-hydrochloride]
Primary Reason for Discontinuation From Study: Treatment Failure (All Randomized Patients): 0 (0.0) N (%) | Change from Baseline in AM TNSS, LS Mean [1]: −1.46 | Change from Baseline in AM TNSS, Mean [1]: −1.48 | Change from Baseline in AM TNSS, Median [1]: −1.25 | Change from Baseline in AM and PM Combined TNSS, Mean [1]: −3.23 | Change from Baseline in AM and PM Combined TNSS, Median [1]: −2.67 | Change from Baseline in PM TNSS, LS Mean [1]: −1.65 | Change from Baseline in PM TNSS, Mean [1]: −1.76 | Change from Baseline in PM TNSS, Median [1]: −1.00 | Percent Change from Baseline in AM TNSS, LS Mean [1]: −15.45% | Percent Change from Baseline in AM TNSS, Mean [1]: −15.79% | Percent Change from Baseline in AM TNSS, Median [1]: −14.29% | Percent Change from Baseline in AM and PM Combined TNSS, LS Mean [1]: −16.31% | Percent Change from Baseline in AM and PM Combined TNSS, Mean [1]: −16.93% | Percent Change from Baseline in AM and PM Combined TNSS, Median [1]: −12.31% | Percent Change from Baseline in PM TNSS, LS Mean [1]: −17.15% | Percent Change from Baseline in PM TNSS, Mean [1]: −17.76% | Percent Change from Baseline in PM TNSS, Median [1]: −10.00% | Change from Baseline in AM and PM Combined TNSS, LS Mean (Day 2, Intent-to-Treat Population, ANCOVA model): −3.10 | Change from Baseline in AM and PM Combined TNSS, LS Mean (Day 2, Per-Protocol Population): −3.08 | Change from Baseline in AM and PM Combined TNSS, Mean (Day 2, Per-Protocol Population): −3.23 | Change from Baseline in AM and PM Combined TNSS, Median (Day 2, Per-Protocol Population): −2.67 | Percent Change from Baseline in AM and PM Combined TNSS, LS Mean (Day 2, Per-Protocol Population): −16.25% | Percent Change from Baseline in AM and PM Combined TNSS, Mean (Day 2, Per-Protocol Population): −16.93% | Percent Change from Baseline in AM and PM Combined TNSS, Median (Day 2, Per-Protocol Population): −12.31% | Change from Baseline in AM TNSS, LS Mean [2]: −1.28 | Change from Baseline in AM TNSS, Mean [2]: −1.29 | Change from Baseline in AM TNSS, Median [2]: −0.80 | Change from Baseline in AM and PM Combined TNSS, Mean [2]: −3.28 | Change from Baseline in AM and PM Combined TNSS, Median [2]: −1.67 | Change from Baseline in PM TNSS, LS Mean [2]: −1.91 | Change from Baseline in PM TNSS, Mean [2]: −1.98 | Change from Baseline in PM TNSS, Median [2]: −1.50 | Percent Change from Baseline in AM TNSS, LS Mean [2]: −13.37% | Percent Change from Baseline in AM TNSS, Mean [2]: −13.75% | Percent Change from Baseline in AM TNSS, Median [2]: −7.89% | Percent Change from Baseline in AM and PM Combined TNSS, LS Mean [2]: −16.85% | Percent Change from Baseline in AM and PM Combined TNSS, Mean [2]: −17.08% | Percent Change from Baseline in AM and PM Combined TNSS, Median [2]: −8.11% | Percent Change from Baseline in PM TNSS, LS Mean [2]: −19.66% | Percent Change from Baseline in PM TNSS, Mean [2]: −20.01% | Percent Change from Baseline in PM TNSS, Median [2]: −15.15% | Change from Baseline in AM and PM Combined TNSS, LS Mean (Day 3, Intent-to-Treat Population, ANCOVA model): −3.21 | Change from Baseline in AM and PM Combined TNSS, LS Mean (Day 3, Per-Protocol Population): −3.19 | Change from Baseline in AM and PM Combined TNSS, Mean (Day 3, Per-Protocol Population): −3.28 | Change from Baseline in AM and PM Combined TNSS, Median (Day 3, Per-Protocol Population): −1.67 | Percent Change from Baseline in AM and PM Combined TNSS, LS Mean (Day 3, Per-Protocol Population): −16.85% | Percent Change from Baseline in AM and PM Combined TNSS, Mean (Day 3, Per-Protocol Population): −17.08% | Percent Change from Baseline in AM and PM Combined TNSS, Median (Day 3, Per-Protocol Population): −8.11% | Change from Baseline in AM TNSS, LS Mean [3]: −1.79 | Change from Baseline in AM TNSS, Mean [3]: −1.76 | Change from Baseline in AM TNSS, Median [3]: −1.33 | Change from Baseline in AM and PM Combined TNSS, Mean [3]: −3.93 | Change from Baseline in AM and PM Combined TNSS, Median [3]: −2.92 | Change from Baseline in PM TNSS, LS Mean [3]: −2.09 | Change from Baseline in PM TNSS, Mean [3]: −2.17 | Change from Baseline in PM TNSS, Median [3]: −2.20 | Percent Change from Baseline in AM TNSS, LS Mean [3]: −18.88% | Percent Change from Baseline in AM TNSS, Mean [3]: −18.84% | Percent Change from Baseline in AM TNSS, Median [3]: −14.89% | Percent Change from Baseline in AM and PM Combined TNSS, LS Mean [3]: −20.41% | Percent Change from Baseline in AM and PM Combined TNSS, Mean [3]: −20.50% | Percent Change from Baseline in AM and PM Combined TNSS, Median [3]: −14.29% | Percent Change from Baseline in PM TNSS, LS Mean [3]: −21.42% | Percent Change from Baseline in PM TNSS, Mean [3]: −21.99% | Percent Change from Baseline in PM TNSS, Median [3]: −23.08% | Change from Baseline in AM and PM Combined TNSS, LS Mean (Day 4, Intent-to-Treat Population, ANCOVA model): −3.89 | Change from Baseline in AM and PM Combined TNSS, LS Mean (Day 4, Per-Protocol Population): −3.87 | Change from Baseline in AM and PM Combined TNSS, Mean (Day 4, Per-Protocol Population): −3.93 | Change from Baseline in AM and PM Combined TNSS, Median (Day 4, Per-Protocol Population): −2.92 | Percent Change from Baseline in AM and PM Combined TNSS, LS Mean (Day 4, Per-Protocol Population): −20.39% | Percent Change from Baseline in AM and PM Combined TNSS, Mean (Day 4, Per-Protocol Population): −20.50% | Percent Change from Baseline in AM and PM Combined TNSS, Median (Day 4, Per-Protocol Population): −14.29% | Change from Baseline in AM TNSS, LS Mean [4]: −2.25 | Change from Baseline in AM TNSS, Mean [4]: −2.23 | Change from Baseline in AM TNSS, Median [4]: −1.67 | Change from Baseline in AM and PM Combined TNSS, Mean [4]: −4.48 | Change from Baseline in AM and PM Combined TNSS, Median [4]: −3.67 | Change from Baseline in PM TNSS, LS Mean [4]: −2.19 | Change from Baseline in PM TNSS, Mean [4]: −2.25 | Change from Baseline in PM TNSS, Median [4]: −1.20 | Percent Change from Baseline in AM TNSS, LS Mean [4]: −23.57% | Percent Change from Baseline in AM TNSS, Mean [4]: −23.62% | Percent Change from Baseline in AM TNSS, Median [4]: −15.79% | Percent Change from Baseline in AM and PM Combined TNSS, LS Mean [4]: −23.20%
